Test results from patent publication US20140357553A1, “NUTRITIONAL COMPOSITION FOR WOUND HEALING” (Nestec S.A., priority 2003, published 2014).

System: Normal human fibroblasts
Description: Normal human fibroblasts were trypsinised and seeded in 12 well plates at a density of […]. When confluent, the cells were transferred to a culture medium with an amino acid distribution and concentrations designed to mimic those in human serum as closely as possible. The cell cultures were divided into two categories, a control culture in which the culture medium contained 0.201 mM proline and an experimental sample in which the culture medium contained 0.592 mM proline. After 24 hours fibroblast-conditioned medium containing 100 microgram/ml beta-aminoproprionitrile to prevent cross-linking of collagen molecules in the cultures was collected. The conditioned medium was dotblotted to a nitrocellulose membrane and probed for collagen type I content with a polyclonal immune-absorbed antibody. The value shown for the proline-supplemented samples is relative to the controls set at 100%.

Structure (SMILES): O=C(O)[C@@H]1CCCN1 [Proline, proline]
- % of control value (collagen type I content) (0.502 mM proline in culture medium vs control medium with 0.201 mM proline set at 100%, conditioned medium collected after 24 hours): 150% ± 21.9%
- increase in collagen synthesis (human fibroblasts, proline-supplemented medium vs control): 50%
